Holding throughout (assay type): cell-based
One assay has as its system NCI-H69 (H69) cell line. Briefly: Cell viability assay for NCI-H69 cell line. The conditions noted are these: Homo sapiens, NCI-H69, 120 h, 5 days, EZ-Cytox, 0.46-3000 nM. The source says: (§1) The NCI-H69 (hereafter H69) and NCI-H526 (hereafter H526) cell lines were purchased from Korea Cell Line Bank (KCLB, Seoul, Korea). For cell culture, RPMI 1640 (Gibco, Cat. No. 22400-089; Lot. No. 2537146), FBS (Gibco, Cat. No. 16000-044; Lot. No. 2511328P), Penicillin/Streptomycin (PS) (Gibco, Cat. No. 15140-122; Lot. No. 2441887), 75T cell culture flask (SPL, Cat. No. 71075), 175T cell culture flask (SPL, Cat. No. 71175), 96-well cell culture plate (SPL, Cat. No. 30096), PBS pH 7.4 (Gibco, Cat. No. 10010-023; Lot. No. 2509235), TrypLE™ Express (Gibco, Cat. No. 12605-010; Lot. No. 2323417), Cell Counter (Hematocytometer)(As one, Cat. No. 4-458-01), and 0.4% Trypan Blue Solution (DYNEBIO, Cat. No. CBT3710; Lot. No. 20221111) were used.
(§2) The compounds of Examples were completely dissolved in DMSO (Sigma-Aldrich Cat. No. D2438, Lot. No. RNBL7287) and used in the experiment. 3×10^4 cells were seeded for each well of a 96-well plate (SPL), and the cells were cultured in total volume of 150 μl. Each compound was diluted 3-folds from the highest concentration of 3000 nM to the lowest concentration of 0.46 nM. After treating the compound to each well to make the total volume of 200 μl, it was cultured in a CO2 incubator (Thermo Fisher Science, Cat. No. 4111) for 5 days. Then, after treating EZ-Cytox (DOGEN, Cat.NO. EZ-3000, Lot. No. DLS2308) 20 μl in each well, it was cultured in CO2 incubator for 4 hours. The absorbance of the completely cultured sample was measured by setting the wavelength of a plate reader (BMG Labtech, CLARIOstar Plus) to […], and was measured after shaking for 3 minutes in a plate reader before measurement.
(§3) (A: IC50 is less than 20 nM, B: IC50 is 50 nM or less, C: IC50 is 100 nM or less)

Another assay has as its target T1, PLK1 (Homo sapiens, UniProt P53350).
T1 construct: endogenous in cells; host or cells: HeLa LgBit (PLK1-HiBit KI): HeLa cells stably expressing LgBit, with CRISPR/Cas9 knock-in of HiBit at the endogenous PLK1 locus
Briefly: Luciferase assay for PLK1 in HeLa LgBit (PLK1-HiBit KI) cell line. To be noted: released after thymidine block, compound 300 nM, luminescence after 9 hours. As for the experimental part: A HeLa cell line in which the LgBit vector was transfected and expressed stably was prepared. Then, after constructing gRNA and donor to express the HiBit amino acid sequence behind the C-terminal of the PLK1 gene, which was inherent in the cell, it was inserted into the cell together with a vector capable of expressing CRISPR/Cas9. Only the cells in which the insertion was completed and knock-in had progressed were selected, sub-cultured and used.
The compounds of Examples were completely dissolved in DMSO (Sigma-Aldrich Cat. No. D2438, Lot. No. RNBL5438) and used in the experiment.
In the case of HeLa LgBit (Plk1-HiBit KI), the compounds were treated after being released after thymidine block, and the process was as follows. Thymidine (Sigma-Aldrich Cat. No. T9250-5G) was completely dissolved in ddH2O and used in the experiment. For thymidine block, the products were treated with 2 mM of thymidine and then incubated for 24 hours. For release and chemical treatment, the medium was suctioned and washed with 1×PBS. TrypLE™ was added and incubated in 37° C. CO2 incubator (Thermo Fisher Science, Cat. No. 4111) for 5 mins. Cells neutralized by adding complete media were counted through a counter. For each well of a 96-well culture plate (SPL), 3.3×10^4 cells and a total medium volume of 150 μl were seeded and incubated in a CO2 incubator.
Each cell line was incubated in a CO2 incubator for 18 hours, and Endurazine (Promega, Cat. No. N257B) was added to each well to make up 4% of the total volume. After adding compounds of Examples in a 96-well white plate (SPL) to a concentration of 300 nM, the wavelength of the plate reader (BMG Labtech, CLARIOstar Plus) was set to 470-480 nM, and then the luminescence was tracked in real time.

Assay [1] deals with NCI-H526 (H526) cell line. Briefly: Cell viability assay for NCI-H526 cell line. To be noted: Homo sapiens, NCI-H526, 120 h, 5 days, EZ-Cytox, 0.46-3000 nM.
Description: as §1, §2, §3

The IC50 is the concentration at which inhibition is half-maximal.

Each structure is given as a SMILES string. Where only a bound is given, the exact number is not on record here.

T1 sequence (P53350 whole entry): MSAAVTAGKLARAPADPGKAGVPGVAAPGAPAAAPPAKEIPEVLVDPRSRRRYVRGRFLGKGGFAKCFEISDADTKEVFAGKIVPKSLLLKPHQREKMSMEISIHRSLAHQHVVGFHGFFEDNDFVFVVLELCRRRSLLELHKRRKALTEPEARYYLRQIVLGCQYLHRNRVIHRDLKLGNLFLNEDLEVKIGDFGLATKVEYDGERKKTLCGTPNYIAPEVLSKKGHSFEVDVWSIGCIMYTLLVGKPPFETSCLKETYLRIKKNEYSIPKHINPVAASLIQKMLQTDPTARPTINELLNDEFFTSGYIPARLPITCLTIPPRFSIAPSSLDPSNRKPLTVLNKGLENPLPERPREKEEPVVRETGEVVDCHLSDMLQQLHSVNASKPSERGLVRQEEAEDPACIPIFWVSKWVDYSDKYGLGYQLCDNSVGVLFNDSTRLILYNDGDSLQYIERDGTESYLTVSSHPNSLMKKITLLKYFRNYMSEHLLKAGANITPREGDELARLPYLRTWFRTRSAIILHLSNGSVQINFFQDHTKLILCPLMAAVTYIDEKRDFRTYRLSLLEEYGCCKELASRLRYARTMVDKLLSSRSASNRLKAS

Take `CC[C@@H]1C(=O)N(C)c2cnc(Nc3ccc(C(=O)NC4CCN(C(=O)CCN5CCN(c6ccc(NC7CCC(=O)NC7=O)cc6)CC5)CC4)cc3OC)nc2N1C1CCCC1` (stereo partly drawn) [Compound 24, 4-(((R)-8-cyclopentyl-7-ethyl-5-methyl-6-oxo-5,6,7,8-tetrahydropteridin-2-yl)amino)-N-(1-(3-(4-(4-((2,6-dioxopiperidin-3-yl)amino)phenyl)piperazin-1-yl)propanoyl)piperidin-4-yl)-3-methoxybenzamide]: the IC50 (with NCI-H69 (H69) cell line; in assay [1]) was less than 20 nM each time. For the same compound, at PLK1, the “Value (luminescence value, PLK1-HiBit)” value is on record as 0.206.
With `CC[C@@H]1C(=O)N(C)c2cnc(Nc3ccc(-c4nnc(CNC5CCC(N6CCC(NCc7ccc(C8CCC(=O)NC8=O)cc7)CC6)CC5)o4)cc3OC)nc2N1C1CCCC1` (stereo partly drawn) [Compound 16, 3-(4-(((1-((1r,4r)-4-(((5-(4-(((R)-8-cyclopentyl-7-ethyl-5-methyl-6-oxo-5,6,7,8-tetrahydropteridin-2-yl)amino)-3-methoxyphenyl)-1,3,4-oxadiazol-2-yl)methyl)amino)cyclohexyl)piperidin-4-yl)amino)methyl)phenyl)piperidine-2,6-dione], the IC50 was no more than 100 nM in the assay on NCI-H69 (H69) cell line and no more than 50 nM in assay [1]. Further, the “Value (luminescence value, PLK1-HiBit)” value at PLK1 stood at 0.263.
As for `CC[C@@H]1C(=O)N(C)c2cnc(Nc3ccc(C(=O)NC4CCC(N5CCN(CCCc6ccc(NC7CCC(=O)NC7=O)cc6)CC5)CC4)cc3OC)nc2N1C1CCCC1` (stereo partly drawn) [Compound 3, 4-(((R)-8-cyclopentyl-7-ethyl-5-methyl-6-oxo-5,6,7,8-tetrahydropteridin-2-yl)amino)-N-((1r,4R)-4-(4-(3-(4-((2,6-dioxopiperidin-3-yl)amino)phenyl)propyl)piperazin-1-yl)cyclohexyl)-3-methoxybenzamide], the IC50 (in the assay with NCI-H69 (H69) cell line; in assay [1]) was less than 20 nM in each case. The “Value (luminescence value, PLK1-HiBit)” value on PLK1 was 0.253.
Consider `CC[C@@H]1C(=O)N(C)c2cnc(Nc3ccc(C(=O)NC4CCC(NCC5CCN(c6ccc(C7CCC(=O)NC7=O)cc6F)CC5)CC4)cc3OC)nc2N1C1CCCC1` (stereo partly drawn) [Compound 18, 4-(((R)-8-cyclopentyl-7-ethyl-5-methyl-6-oxo-5,6,7,8-tetrahydropteridin-2-yl)amino)-N-((1r,4R)-4-(((1-(4-(2,6-dioxopiperidin-3-yl)-2-fluorophenyl)piperidin-4-yl)methyl)amino)cyclohexyl)-3-methoxybenzamide], for which the IC50 (in the assay on NCI-H69 (H69) cell line; in assay [1]) was less than 20 nM in each case. The “Value (luminescence value, PLK1-HiBit)” value on PLK1 is reported as 0.111.
Turning to `CC[C@@H]1C(=O)N(C)c2cnc(Nc3ccc(C(=O)NN4CCC(N5CCC(CNc6ccc(C7CCC(=O)NC7=O)cc6)CC5)CC4)cc3OC)nc2N1C1CCCC1` (stereo partly drawn) [Compound 21, 4-(((R)-8-cyclopentyl-7-ethyl-5-methyl-6-oxo-5,6,7,8-tetrahydropteridin-2-yl)amino)-N-(4-(((4-(2,6-dioxopiperidin-3-yl)phenyl)amino)methyl)-[1,4′-bipiperidin]-1′-yl)-3-methoxybenzamide], the half-maximal inhibitory concentration (IC50) (with NCI-H69 (H69) cell line; in assay [1]) was less than 20 nM throughout. In addition, the “Value (luminescence value, PLK1-HiBit)” value at PLK1 came out at 0.144.
Regarding `CC[C@@H]1C(=O)N(C)c2cnc(Nc3ccc(C(=O)NC4CCN(C(=O)C(N)CN5CCN(c6ccc(C7CCC(=O)NC7=O)cc6)CC5)CC4)cc3OC(F)(F)F)nc2N1C1CCCC1` (stereo partly drawn) [Compound 10, N-(1-(2-amino-3-(4-(4-(2,6-dioxopiperidin-3-yl)phenyl)piperazin-1-yl)propanoyl)piperidin-4-yl)-4-(((R)-8-cyclopentyl-7-ethyl-5-methyl-6-oxo-5,6,7,8-tetrahydropteridin-2-yl)amino)-3-(trifluoromethoxy)benzamide], the IC50 with NCI-H69 (H69) cell line was no more than 100 nM; in assay [1] it was no more than 50 nM. Further, on PLK1, the “Value (luminescence value, PLK1-HiBit)” value turned out to be 0.282.
In the case of `CC[C@@H]1C(=O)N(C)c2cnc(Nc3ccc(C(=O)NC4CCN(C5CCN(CCc6ccc(C7CCC(=O)NC7=O)cc6)CC5)CC4)cc3OC)nc2N1C1CCCC1` (stereo partly drawn) [Compound 22, 4-(((R)-8-cyclopentyl-7-ethyl-5-methyl-6-oxo-5,6,7,8-tetrahydropteridin-2-yl)amino)-N-(1′-(4-(2,6-dioxopiperidin-3-yl)phenethyl)-[1,4′-bipiperidin]-4-yl)-3-methoxy benzamide], the results for the IC50 (with NCI-H69 (H69) cell line; in assay [1]) were no more than 50 nM and less than 20 nM, respectively. In addition, the “Value (luminescence value, PLK1-HiBit)” value at PLK1 came to 0.145.
The matching figures for `CC[C@@H]1C(=O)N(C)c2cnc(Nc3ccc(C(=O)NC4CCN(C(=O)CCN5CCN(c6ccc(NC7CCC(=O)NC7=O)cc6)CC5)CC4)cc3OC(F)(F)F)nc2N1C1CCCC1` (stereo partly drawn) [Compound 14, 4-(((R)-8-cyclopentyl-7-ethyl-5-methyl-6-oxo-5,6,7,8-tetrahydropteridin-2-yl)amino)-N-(1-(3-(4-(4-((2,6-dioxopiperidin-3-yl)amino)phenyl)piperazin-1-yl)propanoyl)piperidin-4-yl)-3-(trifluoromethoxy)benzamide]: no more than 50 nM, less than 20 nM and 0.269.
Turning to `CC[C@@H]1C(=O)N(C)c2cnc(Nc3ccc(C(=O)NC4CCN(C(=O)C(N)CN5CCN(c6ccc(C7CCC(=O)NC7=O)cc6)CC5)CC4)cc3OC)nc2N1C1CCCC1` (stereo partly drawn) [Compound 11, N-(1-(2-amino-3-(4-(4-(2,6-dioxopiperidin-3-yl)phenyl)piperazin-1-yl)propanoyl)piperidin-4-yl)-4-(((R)-8-cyclopentyl-7-ethyl-5-methyl-6-oxo-5,6,7,8-tetrahydropteridin-2-yl)amino)-3-methoxybenzamide], the IC50 is no more than 50 nM with NCI-H69 (H69) cell line and less than 20 nM in assay [1]. For the same compound, the “Value (luminescence value, PLK1-HiBit)” value at PLK1 stood at 0.234.
For `CC[C@@H]1C(=O)N(C)c2cnc(Nc3ccc(C(=O)NC4CCC(N5CCN(CCNc6cccc7c6CN(C6CCC(=O)NC6=O)C7=O)CC5)CC4)cc3OC)nc2N1C1CCCC1` (stereo partly drawn) [Compound 5, 4-(((R)-8-cyclopentyl-7-ethyl-5-methyl-6-oxo-5,6,7,8-tetrahydropteridin-2-yl)amino)-N-((1r,4R)-4-(4-(2-((2-(2,6-dioxopiperidin-3-yl)-1-oxoisoindolin-4-yl)amino)ethyl)piperazin-1-yl)cyclohexyl)-3-methoxybenzamide] the same measures were less than 20 nM, less than 20 nM and 0.376.
`CC[C@@H]1C(=O)N(C)c2cnc(Nc3ccc(C(=O)NCC4CCN(CC5CCN(c6ccc(NC7CCC(=O)NC7=O)cc6)CC5)CC4)cc3OC)nc2N1C1CCCC1` (stereo partly drawn) [Compound 13, 4-(((R)-8-cyclopentyl-7-ethyl-5-methyl-6-oxo-5,6,7,8-tetrahydropteridin-2-yl)amino)-N-((1-((1-(4-((2,6-dioxopiperidin-3-yl)amino)phenyl)piperidin-4-yl)methyl)piperidin-4-yl)methyl)-3-methoxybenzamide]: the IC50 in the assay with NCI-H69 (H69) cell line was no more than 100 nM; in assay [1], less than 20 nM. In addition, the “Value (luminescence value, PLK1-HiBit)” value on PLK1 was 0.165.

Values taken from US20260199367A1, “PLK1 DEGRADATION INDUCING COMPOUNDS WITH INCREASED RIGIDITY” (UPPTHERA, INC., priority 2022, published 2026).
